Experimental data published in patent publication US12606572B2, “Substituted heterocycles and uses thereof” (Kumquat Biosciences Inc., priority 2023, dated 2026).
pIC50: −log10 of the molar value.

Key:
KRAS WT = molecular target: T1, KRAS WT (Homo sapiens, UniProt P01116); experiment: HTRF assay, interaction of GST-tagged K-Ras with His-tagged hSOS1 (KRAS wildtype); assay type: biochemical; details: <500 nM, read-out: Inhibition of KRAS WT (IC50)
T1 construct: made in house; host or cells: E. coli BL21 (DE3)
Procedure, shortened: (§1)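 GST-K-Ras (G12S or WT) with anti-GST-Eu donor mixed with His-hSOS1 and anti-6His-XL665 acceptor in ~5 mM HEPES pH 7.4, 150 mM NaCl, 1 mM DTT, 0.05% BSA, 0.0025% Igepal. After ~10 min or longer, HTRF 665/620 nm ratio read.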

KRAS G12S = molecular target: T2, KRAS G12S (Homo sapiens, UniProt P01116, G12S); experiment: HTRF assay, interaction of GST-tagged K-Ras with His-tagged hSOS1 (KRAS G12S); assay type: biochemical; details: <500 nM, read-out: Inhibition of KRAS G12S (IC50)
T2 construct: made in house; host or cells: E. coli BL21 (DE3)
Procedure, shortened: as §1

T2 sequence (P01116 1-188 isoform P01116-2 G12S): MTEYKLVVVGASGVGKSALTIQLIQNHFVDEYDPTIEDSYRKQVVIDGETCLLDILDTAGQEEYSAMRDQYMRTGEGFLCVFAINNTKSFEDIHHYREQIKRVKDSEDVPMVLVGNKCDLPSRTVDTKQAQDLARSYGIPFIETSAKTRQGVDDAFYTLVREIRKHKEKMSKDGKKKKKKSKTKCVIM
T1 sequence (P01116 1-188 isoform P01116-2): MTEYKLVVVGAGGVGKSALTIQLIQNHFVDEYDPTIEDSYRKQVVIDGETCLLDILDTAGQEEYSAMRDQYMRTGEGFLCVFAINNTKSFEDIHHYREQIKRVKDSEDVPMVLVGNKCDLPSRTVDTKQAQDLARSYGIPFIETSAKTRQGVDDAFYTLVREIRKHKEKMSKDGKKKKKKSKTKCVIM

`CC([C@H]1CCN1C(=O)n1cncn1)N1CCOc2c(Cl)c(-c3ccc(F)c4sc(N)c(C#N)c34)c(F)c3nc(OC[C@@]45CCCN4C[C@H](F)C5)nc1c23` (stereo partly drawn) [Compound 445, 4-(4-(1-((R)-1-(1H-1,2,4-triazole-1-carbonyl)azetidin-2-yl)ethyl)-8-chloro-10-fluoro-2-(((2R,7aS)-2-fluorotetrahydro-1H-pyrrolizin-7a (5H)-yl)methoxy)-5,6-dihydro-4H-[1,4]oxazepino[5,6,7-de]quinazolin-9-yl)-2-amino-7-fluorobenzo[b]thiophene-3-carbonitrile] was tested, and the pIC50 (KRAS WT) was over 6.30 and the pIC50 (KRAS G12S) was over 6.30.
`C=C(C(=O)N1CC(CN2CCOc3c(Cl)c(-c4ccc(F)c5sc(N)c(C#N)c45)c(F)c4nc(OC[C@@]56CCCN5C[C@H](F)C6)nc2c34)C1)C1CC1` [Compound 447, 2-amino-4-(8-chloro-4-((1-(2-cyclopropylacryloyl)azetidin-3-yl)methyl)-10-fluoro-2-(((2R,7aS)-2-fluorotetrahydro-1H-pyrrolizin-7a(5H)-yl)methoxy)-5,6-dihydro-4H-[1,4]oxazepino [5,6,7-de]quinazolin-9-yl)-7-fluorobenzo[b]thiophene-3-carbonitrile] gave a pIC50 (KRAS WT) of over 6.30 and a pIC50 (KRAS G12S) of over 6.30.
`C[C@@H]1[C@H](N2CCCOc3c(Cl)c(-c4ccc(F)c5sc(N)c(C#N)c45)c(F)c4nc(OC[C@@]56CCCN5C[C@H](F)C6)nc2c34)CCN1C(=O)n1cnc(F)n1` [Compound 448, 2-amino-4-(9-chloro-11-fluoro-4-((2R,3R)-1-(3-fluoro-1H-1,2,4-triazole-1-carbonyl)-2-methylpyrrolidin-3-yl)-2-(((2R,7aS)-2-fluorotetrahydro-1H-pyrrolizin-7a(5H)-yl)methoxy)-4,5,6,7-tetrahydro-[1,5]oxazocino [4,3,2-de]quinazolin-10-yl)-7-fluorobenzo[b]thiophene-3-carbonitrile] gave a pIC50 (KRAS WT) of over 6.30 and a pIC50 (KRAS G12S) of over 6.30.
With `C[C@H](O)[C@H]1COc2c(Cl)c(-c3ccc(F)c4sc(N)c(C#N)c34)c(F)c3nc(OC[C@@]45CCCN4C[C@H](F)C5)nc(c23)N1CCN(C)C(=O)n1ccnc1` [Compound 449, N-(2-((5R)-9-(2-amino-3-cyano-7-fluorobenzo[b]thiophen-4-yl)-8-chloro-10-fluoro-2-(((2R,7aS)-2-fluorotetrahydro-1H-pyrrolizin-7a(5H)-yl)methoxy)-5-((S)-1-hydroxyethyl)-5,6-dihydro-4H-[1,4]oxazepino [5,6,7-de]quinazolin-4-yl)ethyl)-N-methyl-1H-imidazole-1-carboxamide] the pIC50 (KRAS WT) was over 6.30 and the pIC50 (KRAS G12S) was over 6.30.
Work on `Cc1cn(C(=O)N2CC[C@@H](N3CCCCc4nc(-c5ccc(F)c6sc(N)c(C#N)c56)c(F)c5nc(OC[C@@]67CCCN6C[C@H](F)C7)nc3c45)[C@H]2C)c(C)n1` [Compound 454, 2-amino-4-(11-((2R,3R)-1-(2,4-dimethyl-1H-imidazole-1-carbonyl)-2-methylpyrrolidin-3-yl)-4-fluoro-2-(((2R,7aS)-2-fluorotetrahydro-1H-pyrrolizin-7a (5H)-yl)methoxy)-8,9,10,11-tetrahydro-7H-1,3,6,11-tetraazacycloocta[de]naphthalen-5-yl)-7-fluorobenzo[b]thiophene-3-carbonitrile] yielded a pIC50 (KRAS WT) of over 6.30 and a pIC50 (KRAS G12S) of over 6.30.
`C[C@@H]1CCOc2c(Cl)c(-c3ccc(F)c4sc(N)c(C#N)c34)c(F)c3nc(OC[C@@]45CCCN4C[C@H](F)C5)nc(c23)N1C[C@@H]1CN(C(=O)n2ccnc2)[C@@H]1C1(C)CC1` [Compound 455, 4-((5R)-4-(((2S,3R)-1-(1H-imidazole-1-carbonyl)-2-(1-methylcyclopropyl)azetidin-3-yl)methyl)-9-chloro-11-fluoro-2-(((2R,7aS)-2-fluorotetrahydro-1H-pyrrolizin-7a(5H)-yl)methoxy)-5-methyl-4,5,6,7-tetrahydro-[1,5]oxazocino[4,3,2-de]quinazolin-10-yl)-2-amino-7-fluorobenzo [b]thiophene-3-carbonitrile] gave a pIC50 (KRAS WT) of over 6.30 and a pIC50 (KRAS G12S) of over 6.30.
